Measured values from publication PMC4914250, “Cancer therapeutic approach based on conformational stabilization of mutant p53 protein by small peptides” (Oncotarget, 2016).

Key:
EP156 = assay: Crystal violet viability assay, EP156; format: cell-based; design: key: score 0- no effect-white; score 6- as or more effective than positive control- black; conditions: score 0-6 compared to positive control, 48 h
Source text: We also performed a similar analysis on ES2 ovarian cancer cells, which express endogenous mp53^S241F, compared to ES2 cells in which p53 was stably knocked out using CRISPR/Cas9 (ES2 p53KO Figure S1F), to control for specificity for mutp53 (Figure 2D). In ES2 cells, too, some of the peptides caused a significant reduction in cell numbers, more prominent in the mutp53 expressing cells than in their p53KO counterparts. […] Overall, we performed this analysis on several different mutp53-expressing human cancer cell lines, and the results are summarized in Table S3. Based on this comprehensive picture, we reduced the number of most promising candidate lead peptides to 30. These peptides were then synthesized with an 8 arginine C-terminal tail for enhanced delivery across cell membranes (pCAPs 130-160); for clarity, peptides are referred to by their original number, with an R for poly arginine (see Table S3).
Cells were cultured in 96 wells plates with 2500-4000 cells/well. Serial dilutions of different peptides were added and the plates incubated for additional 48 h at 37°C. Then medium was removed and cell viability was determined by staining the cells with crystal violet (0.05%) in methanol/PBS (1:5, v/v), for 10 min, followed by 3 washes with PBS. 10% acetic acid was added to each well for 10 min. OD was determined at 595 nm.

mutp53^R175H = assay: ELISA of mutp53 DNA binding (p53RE oligonucleotide), H1299-p53^R175H cell extract; format: biochemical, human; conditions: for DNA H1299: score 0-6 compared to positive control, mutp53 DNA binding; for binding of mutp53 to the p53RE: H1299-p53^R175H extract, Figure 2B
Description: Cell extracts were added to ELISA plates coated with the indicated antibodies to allow mutp53 to react with the peptides and antibodies. αp53-HRP Ab was used for assessment of p53 levels. Numbers represent ratio of absorbance between the PAb1620 and PAb240 samples. All reads were normalized to the control […] reading of each extract. MCF7 (WTp53) and H1299-mutp53^A135V (tsp53) cells were used as positive controls for the WTp53 conformation (1620/240 ratio equals or exceeds 5:1). […] 96 well plates were coated with anti-p53 antibody, cell extracts containing p53 were reacted with oligonucleotides that contain a p53RE consensus binding site, labeled with biotin, in the presence or absence (NT) of test peptides. Streptavidin-HRP is used to quantify the amount of oligos in the well. TMB assay was performed to determine bound mutp53 levels (450nm). MCF7 and the H1299-mutp53^A135V(TS) cells serve as positive controls for WTp53. C.and D. - Bar graphs illustrating the effect of various selected peptides on mut-p53 dependent expression on cell viability. […] D, ES2 cells expressing endogenous mutp53 (blue bars) and ES2 cells knocked out for p53 by CRISPR construct (light blue bars). Cell lines were treated with selected peptides, Cis-platinum was used as positive control for cell death. 48 hours after treatment, cells were washed with PBS, and the remaining attached cells were stained with Crystal violet and washed 4 times with PBS. Stained cells were dissolved in 10% acetic acid and plates were taken for optical density measurement at […]. TEXT PRINTED IN THE PICTURE: (A) pCAP1: 0.87 | (A) pCAP2: 0.53 | (A) pCAP3: 0.59 | (A) pCAP4: 0.59 | (A) pCAP5: 0.60 | (A) pCAP6: 0.75 | (A) pCAP23: 1.06 | (A) pCAP24: 1.44 | (A) pCAP36: 1.25 | (A) pCAP47: 1.54 | (A) pCAP54: 1.54 | (A) pCAP60: 2.73 | (A) pCAP68: 2.22 | (A) pCAP83: 1.56 | (A) pCAP97: 2.45 DOUBTS OF THE COPYIST ABOUT THIS PICTURE: Panel A: the numbers over the bars are printed very small, rotated and blurred, so 3, 5, 6, 8 and 9 cannot be told apart with certainty. All values are best readings: pCAP1 0.87, pCAP2 0.53, pCAP3 0.59, pCAP4 0.59, pCAP5 0.60, pCAP6 0.75, pCAP23 1.06, pCAP24 1.44, pCAP36 1.25, pCAP47 1.54, pCAP54 1.54, pCAP60 2.73, pCAP68 2.22, pCAP83 1.56, pCAP97 2.45 / Panel A: the picture prints no measure with the numbers over the bars, so they are given as bare numbers / Panel A: numbers are also printed over the controls, which are not substances and are left out of lines. Best readings: NT 0.60, 60° 30'' 0.48, 60° 1' 0.37, 60° 3' 0.13, 60° 10' 0.05, MCF7 3.32, H1299TS 3.25
(§1) Next, we assessed the ability of our selected peptides to restore sequence-specific DNA binding to mutp53. To that end we employed an ELISA kit (R&D) in which cell extracts containing p53 are reacted with a biotinylated p53RE oligonucleotide and then incubated in wells coated with anti-p53 antibody, which is expected to trap the p53 protein and its associated p53RE DNA. The amount of p53RE retained in each well via p53 binding is quantified by incubation with streptavidin-HRP. […] Again, extracts of MCF7 and H1299-tsp53^A135V cells served as positive controls for WTp53 DNA binding activity. […] Importantly, there was substantial overlap between the peptides that stabilized the WT conformation (Figure 2A) and those that increased specific DNA binding (Figure 2B), further reinforcing the conclusion that those peptides stabilize mutp53 in a functional state. This was not seen with the randomly selected peptides 1-6 (black bars).
For these experiments, a commercial p53/DNA binding kit of “R&D” (Cat-DYC1355-5 Lot-1273366FA) was used, in accordance with manufacturer guide lines. Briefly, 96 well plates we coated with anti-p53 antibody overnight. Cell extracts containing p53 are reacted with an oligonucleotide that contains a p53 consensus binding site (provided in the kit), labeled with Biotin, in the presence or absence (NT) of test peptides. […]

[1] = tested on: mutp53 in SK3 cell extract; assay: ELISA of mutp53 DNA binding (p53RE oligonucleotide), SK3; format: biochemical, human; conditions: score 0-6 compared to positive control
Description: as §1
For these experiments, a commercial p53/DNA binding kit of “R&D” (Cat-DYC1355-5 Lot-1273366FA) was used, in accordance with manufacturer guide lines. Briefly, 96 well plates we coated with anti-p53 antibody overnight. Cell extracts containing p53 are reacted with an oligonucleotide that contains a p53 consensus binding site (provided in the kit), labeled with Biotin, in the presence or absence (NT) of test peptides. WT p53 is expected to bind this DNA binding site as well as to the antibody coating the test wells of the plate. Excess p53 and oligos were washed away and streptavidin-HRP was used to quantify the amount of oligos in the well, which is proportional to the DNA bound by p53. TMB assay was performed to determine HRP (ES001-1L-K) levels (450nm).

[2] = tested on: H1299 cells expressing mutp53^R175H; assay: Crystal violet viability assay, H1299; format: cell-based; conditions: 48 h; for Viability H1299: score 0-6 compared to positive control; for mutp53-specific effect on cell number, H1299: H1299 mutp53^R175H versus p53-null
Description: Cell extracts were added to ELISA plates coated with the indicated antibodies to allow mutp53 to react with the peptides and antibodies. αp53-HRP Ab was used for assessment of p53 levels. Numbers represent ratio of absorbance between the PAb1620 and PAb240 samples. All reads were normalized to the control PAb241 reading of each extract. MCF7 (WTp53) and H1299-mutp53^A135V (tsp53) cells were used as positive controls for the WTp53 conformation (1620/240 ratio equals or exceeds 5:1). […] 96 well plates were coated with anti-p53 antibody, cell extracts containing p53 were reacted with oligonucleotides that contain a p53RE consensus binding site, labeled with biotin, in the presence or absence (NT) of test peptides. Streptavidin-HRP is used to quantify the amount of oligos in the well. TMB assay was performed to determine bound mutp53 levels (450nm). MCF7 and the H1299-mutp53^A135V(TS) cells serve as positive controls for WTp53. C.and D. - Bar graphs illustrating the effect of various selected peptides on mut-p53 dependent expression on cell viability. […] D, ES2 cells expressing endogenous mutp53 (blue bars) and ES2 cells knocked out for p53 by CRISPR construct (light blue bars). Cell lines were treated with selected peptides, Cis-platinum was used as positive control for cell death. 48 hours after treatment, cells were washed with PBS, and the remaining attached cells were stained with Crystal violet and washed 4 times with PBS. Stained cells were dissolved in 10% acetic acid and plates were taken for optical density measurement at 595nM.
This simple assay measures the total number of cells, thus reflecting the combination of both cell death and growth arrest effects. […] After 48 hours of treatment cells were stained with crystal violet and OD at 595nm was determined.
Values on the Y-axis reflect the number of cells in the treated wells, normalized to the non-treated samples (NT; red bars).

| Substance | Viability EP156 (EP156) | DNA H1299 (mutp53^R175H) | DNA SK3 [1] | Viability H1299 [2] | mutp53-specific effect on cell number, H1299 [2] | binding of mutp53 to the p53RE (mutp53^R175H) |
| --- | --- | --- | --- | --- | --- | --- |
| LHSKTLVL [pCAP-17] | 4 | 3 | 3 | – | – | – |
| SFILFIRRGRLGRRRRRRRRR [pCAP-60R, pCAP-60 with poly arginine tail] | 2 | 3 | 2 | 2 | – | – |
| myr-RRKHNKHRPEPDSDER [pCAP-221] | 5 | 2 | 3 | 2 | – | – |
| myr-RRKILFIRLMHNKH [pCAP-227, myristoylated peptide, similarity to GAS2] | 4 | 3 | 3 | 5 | – | – |
| HSSHHHPVHSWN [pCAP-83] | 4 | 5 | 2 | 4 | mutp53-specific effect | – |
| WNHHHSTPHPAHRRRRRR [pCAP-97R, pCAP-97 with poly arginine tail] | 4 | 4 | 3 | 4 | – | – |
| LRCLLLLIGRVGRRRRRRRR [pCAP-24R, pCAP-24 with poly arginine tail] | 4 | 3 | 3 | 4 | – | – |
| myr-RRIRDPRILLLHFD [pCAP-325] | 4 | 4 | 3 | 5 | – | – |
| HANLHHT [pCAP-87] | 4 | – | 2 | 3 | – | – |
| WNHHHSTPHPAH [pCAP-97] | 3 | 4 | 2 | 3 | mutp53-specific effect | marked increase |
| IRILMFLIGCGRRRRRRRRR [pCAP-23R, pCAP-23 with poly arginine tail] | 4 | 3 | – | 3 | – | – |
| IRGRIIR [pCAP-54] | 4 | 2 | – | – | mutp53-specific effect | marked increase |
| myr-RRLIVRILKLPNPPER [pCAP-242] | 6 | 4 | 4 | 5 | – | – |
| YRRLLIGMMWRRRRRRRRR [pCAP-68] | 3 | 3 | – | 3 | – | marked increase |
| LRCLLLLIGRVG [pCAP-24] | 4 | 3 | 3 | – | mutp53-specific effect | – |
| YPTQGHLR [pCAP-36] | 4 | 2 | 2 | 2 | mutp53-specific effect | – |
| IRILMFLIGCGR [pCAP-23] | 4 | 1 | – | 3 | – | – |
| EVTFRHSVV [pCAP-1, randomly selected peptide used as inert comparison] | – | – | – | 1 | – | – |
| SFILFIRRGRLG [pCAP-60] | 4 | 3 | – | 2 | mutp53-specific effect | marked increase |
| myr-PRVLPSPHTIHPSQYP [pCAP-229, myristoylated peptide, similarity to HIPK2] | 3 | 4 | 3 | 4 | – | – |
| IRGRIIRRRRRRRRR [pCAP-54R, pCAP-54 with poly arginine tail] | 4 | 2 | – | 2 | – | – |
